According to patent US8952034B2, “Fused heterocyclic compounds as ion channel modulators” (Gilead Sciences, Inc., priority 2009, dated 2015):

Each compound was assayed against wild-type human cardiac sodium channel, hNav1.5 (Homo sapiens, UniProt Q14524) (assay: Late INa screening assay (automated whole cell patch clamp, PatchXpress)). Conditions: compound at 1 μM; HEK293 cells expressing hNav1.5; late INa generated with 10 μM Tefluthrin (or 50 nM ATX II); read-out: LateINa_1 uM (percent block of late INa).
Format: cell-based
In short: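 Late sodium current through wild-type human hNav1.5 stably expressed in HEK293 cells (no beta subunits) was recorded by automated whole-cell patch clamp on a PatchXpress 7000A at 24-27° C. Late INa was induced with 10 μM Tefluthrin or 50 nM ATX II. Cells were stepped from −120 mV to −20 mV for 250 ms at 0.1 Hz, and percent block was normalized to current in Na-free extracellular solution.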

Sequence of wild-type human cardiac sodium channel, hNav1.5 (Q14524 whole entry): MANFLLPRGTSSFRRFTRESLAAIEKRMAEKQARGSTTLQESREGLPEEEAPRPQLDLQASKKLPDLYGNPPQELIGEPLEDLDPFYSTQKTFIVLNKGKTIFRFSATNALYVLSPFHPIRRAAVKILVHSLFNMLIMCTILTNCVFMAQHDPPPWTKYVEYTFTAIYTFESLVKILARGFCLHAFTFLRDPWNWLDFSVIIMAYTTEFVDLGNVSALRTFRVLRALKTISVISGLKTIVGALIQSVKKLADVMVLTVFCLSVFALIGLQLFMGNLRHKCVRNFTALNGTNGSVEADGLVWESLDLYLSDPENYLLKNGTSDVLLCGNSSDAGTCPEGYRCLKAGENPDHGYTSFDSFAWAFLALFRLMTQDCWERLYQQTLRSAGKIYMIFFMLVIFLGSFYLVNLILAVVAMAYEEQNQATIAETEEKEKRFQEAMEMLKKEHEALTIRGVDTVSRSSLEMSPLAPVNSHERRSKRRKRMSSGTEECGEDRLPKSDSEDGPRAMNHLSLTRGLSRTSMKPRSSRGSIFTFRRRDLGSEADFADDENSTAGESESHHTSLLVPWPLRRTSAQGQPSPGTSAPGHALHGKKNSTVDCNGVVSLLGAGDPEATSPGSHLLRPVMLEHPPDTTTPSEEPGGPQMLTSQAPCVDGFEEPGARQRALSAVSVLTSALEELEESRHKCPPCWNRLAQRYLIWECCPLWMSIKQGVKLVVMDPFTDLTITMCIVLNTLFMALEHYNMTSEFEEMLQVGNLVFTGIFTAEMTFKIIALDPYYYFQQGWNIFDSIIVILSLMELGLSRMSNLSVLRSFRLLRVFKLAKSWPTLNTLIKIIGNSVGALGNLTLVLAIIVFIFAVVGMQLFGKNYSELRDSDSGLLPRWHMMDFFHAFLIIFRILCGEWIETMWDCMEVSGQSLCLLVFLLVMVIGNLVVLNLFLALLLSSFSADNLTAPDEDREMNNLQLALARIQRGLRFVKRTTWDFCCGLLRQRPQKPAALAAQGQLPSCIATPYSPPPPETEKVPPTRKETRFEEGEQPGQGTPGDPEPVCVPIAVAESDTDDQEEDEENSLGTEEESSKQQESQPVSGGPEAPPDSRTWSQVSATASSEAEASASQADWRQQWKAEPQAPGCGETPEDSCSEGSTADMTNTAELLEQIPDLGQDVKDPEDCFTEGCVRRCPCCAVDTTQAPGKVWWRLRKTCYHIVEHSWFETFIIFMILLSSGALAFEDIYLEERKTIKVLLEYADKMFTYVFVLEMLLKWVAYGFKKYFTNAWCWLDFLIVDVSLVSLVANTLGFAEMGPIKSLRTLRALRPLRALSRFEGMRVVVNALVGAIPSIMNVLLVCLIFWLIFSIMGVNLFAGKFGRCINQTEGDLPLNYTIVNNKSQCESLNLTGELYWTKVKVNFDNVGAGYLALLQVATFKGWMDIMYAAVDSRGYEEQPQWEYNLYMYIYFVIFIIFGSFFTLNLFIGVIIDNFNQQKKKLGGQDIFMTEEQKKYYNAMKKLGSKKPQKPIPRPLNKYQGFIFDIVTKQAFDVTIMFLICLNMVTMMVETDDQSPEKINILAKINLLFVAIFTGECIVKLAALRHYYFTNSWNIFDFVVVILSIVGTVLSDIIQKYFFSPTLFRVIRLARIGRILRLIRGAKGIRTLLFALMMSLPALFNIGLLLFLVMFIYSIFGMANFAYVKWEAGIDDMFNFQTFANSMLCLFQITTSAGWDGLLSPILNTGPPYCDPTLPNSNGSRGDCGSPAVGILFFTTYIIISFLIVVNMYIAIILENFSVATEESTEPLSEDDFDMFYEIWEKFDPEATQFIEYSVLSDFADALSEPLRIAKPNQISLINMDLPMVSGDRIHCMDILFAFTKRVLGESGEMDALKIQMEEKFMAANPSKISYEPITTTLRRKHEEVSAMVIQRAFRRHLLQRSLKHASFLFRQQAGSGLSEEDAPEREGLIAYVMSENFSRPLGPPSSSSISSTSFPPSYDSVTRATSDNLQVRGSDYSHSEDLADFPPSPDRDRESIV

Compound | inhibition at 1 µM
Cc1ccc(COCc2nnc3ccc(-c4ccc(OC(F)(F)F)cc4)cn23)nc1 [BHN-252, 3-{[(5-methylpyridin-2-yl)methoxy]methyl}-6-[4-(trifluoromethoxy)phenyl][1,2,4]triazolo[4,3-a]pyridine] | 20.6%
Fc1ccc(-c2cc(COC(F)(F)c3nnc4ccc(-c5ccc(OC(F)(F)F)cc5)cn34)no2)cc1 [BHN-318, 3-(difluoro{[5-(4-fluorophenyl)-1,2-oxazol-3-yl]methoxy}methyl)-6-[4-(trifluoromethoxy)phenyl][1,2,4]triazolo[4,3-a]pyridine] | 28.9%
CC(OC(F)(F)c1nnc2ccc(-c3ccc(OC(F)(F)F)cc3)cn12)c1ccc(Cl)cc1 (stereo not shown) [BHN-231, 3-{[1-(4-chlorophenyl)ethoxy](difluoro)methyl}-6-[4-(trifluoromethoxy)phenyl][1,2,4]triazolo[4,3-a]pyridine] | 62.9%
FC(F)(F)c1nnc2ccc(-c3ccc(OC4CC4)nc3)cn12 [BHN-180, 6-[6-(cyclopropyloxy)pyridin-3-yl]-3-(trifluoromethyl)[1,2,4]triazolo[4,3-a]pyridine] | 21.1%
FC(F)(F)c1nnc2ccc(-c3ccc(Oc4ccncc4)cc3)cn12 [BHN-113, 6-[4-(pyridin-4-yloxy)phenyl]-3-(trifluoromethyl)[1,2,4]triazolo[4,3-a]pyridine] | 20.1%
N#Cc1cccc(COC(F)(F)c2nnc3ccc(-c4ccc(OC(F)(F)F)cc4)cn23)c1 [BHN-261, 3-[(difluoro{6-[4-(trifluoromethoxy)phenyl][1,2,4]triazolo[4,3-a]pyridin-3-yl}methoxy)methyl]benzonitrile] | 56.8%
COCC(F)(F)c1nnc2ccc(C#Cc3ccc(OC(F)(F)F)cc3)cn12 [BHN-309, 3-(1,1-difluoro-2-methoxyethyl)-6-{[4-(trifluoromethoxy)phenyl]ethynyl}[1,2,4]triazolo[4,3-a]pyridine] | 25.2%
FC(F)(F)Cc1nnc2ccc(-c3ccc(Oc4ccccc4)cc3)nn12 [BHN-31, 6-(4-phenoxyphenyl)-3-(2,2,2-trifluoroethyl)[1,2,4]triazolo[4,3-b]pyridazine] | 57.5%
FC(F)(F)Oc1ccc(-c2ccc3nnc(-c4ccc(OC(F)(F)F)cc4)n3c2)cc1 [BHN-55, 3,6-bis[4-(trifluoromethoxy)phenyl][1,2,4]triazolo[4,3-a]pyridine] | 89.1%
FC(F)(F)Oc1ccc(-c2ccc3nnc(C(F)(F)OCCC(c4ccccc4)c4ccccc4)n3c2)cc1 [BHN-303, 3-[(3,3-diphenylpropoxy)(difluoro)methyl]-6-[4-(trifluoromethoxy)phenyl][1,2,4]triazolo[4,3-a]pyridine] | 51%
FC(F)(F)c1nnc2ccc(-c3ccc(-c4ccccc4)cc3)cn12 [BHN-57, 6-(biphenyl-4-yl)-3-(trifluoromethyl)[1,2,4]triazolo[4,3-a]pyridine] | 45.8%
FC(F)(F)c1ncc2ccc(-c3nccs3)cn12 [BHN-191, 6-(1,3-thiazol-2-yl)-3-(trifluoromethyl)imidazo[1,5-a]pyridine] | 19.8%
FC(F)(F)Oc1ccc(-c2ccc3nnc(C(F)(F)OCC4CC4)n3c2)cc1 [BHN-214, 3-[(cyclopropylmethoxy)(difluoro)methyl]-6-[4-(trifluoromethoxy)phenyl][1,2,4]triazolo[4,3-a]pyridine] | 80.8%
Cc1nn(-c2ccccc2)nc1COC(F)(F)c1nnc2ccc(-c3ccc(OC(F)(F)F)cc3)cn12 [BHN-300, 3-{difluoro[(5-methyl-2-phenyl-2H-1,2,3-triazol-4-yl)methoxy]methyl}-6-[4-(trifluoromethoxy)phenyl][1,2,4]triazolo[4,3-a]pyridine] | 63%
FC(F)(F)Oc1ccc(-c2ccc3nnc(C(F)(F)OCc4cc(-c5ccccc5Cl)on4)n3c2)cc1 [BHN-326, 3-[{[5-(2-chlorophenyl)-1,2-oxazol-3-yl]methoxy}(difluoro)methyl]-6-[4-(trifluoromethoxy)phenyl][1,2,4]triazolo[4,3-a]pyridine] | 52.4%
FC(F)(F)c1ncc2ccc(-c3nc4ccccc4s3)cn12 [BHN-213, 2-[3-(trifluoromethyl)imidazo[1,5-a]pyridin-6-yl]-1,3-benzothiazole] | 24%
FC(F)(F)COc1ccc(-c2ccc3nnnn3c2)cn1 [BHN-219, 6-[6-(2,2,2-trifluoroethoxy)pyridin-3-yl]tetrazolo[1,5-a]pyridine] | 36.9%
NC(=O)c1nnc2ccc(-c3ccc(OC(F)(F)F)cc3)cn12 [BHN-265, 6-[4-(trifluoromethoxy)phenyl][1,2,4]triazolo[4,3-a]pyridine-3-carboxamide] | 15.3%
CN(C)CCOCC(F)(F)c1nnc2ccc(-c3ccc(OC(F)(F)F)cc3)cn12 [BHN-150, 2-(2,2-difluoro-2-{6-[4-(trifluoromethoxy)phenyl][1,2,4]triazolo[4,3-a]pyridin-3-yl}ethoxy)-N,N-dimethylethanamine] | 15.6%
CCC(O)(CC)C(F)(F)c1nnc2ccc(-c3ccc(OC(F)(F)F)cc3)cn12 [BHN-197, 3-(difluoro{6-[4-(trifluoromethoxy)phenyl][1,2,4]triazolo[4,3-a]pyridin-3-yl}methyl)pentan-3-ol] | 25.4%
FC(F)(F)c1nnc2ccc(-c3ccc(OC4CC4)cc3)cn12 [BHN-102, 6-[4-(cyclopropyloxy)phenyl]-3-(trifluoromethyl)[1,2,4]triazolo[4,3-a]pyridine] | 45.5%
CC(C)(C)OC(=O)N1CCC[C@H]1COC(F)(F)c1nnc2ccc(-c3ccc(OC(F)(F)F)cc3)cn12 [BHN-256, tert-butyl (2S)-2-[(difluoro{6-[4-(trifluoromethoxy)phenyl][1,2,4]triazolo[4,3-a]pyridin-3-yl}methoxy)methyl]pyrrolidine-1-carboxylate] | 62.6%
CC(C)(O)COCC(F)(F)c1nnc2ccc(-c3ccc(OC(F)(F)F)cc3)cn12 [BHN-205, 1-(2,2-difluoro-2-{6-[4-(trifluoromethoxy)phenyl][1,2,4]triazolo[4,3-a]pyridin-3-yl}ethoxy)-2-methylpropan-2-ol] | 25.2%
FC(F)(F)Oc1ccc(-c2ccc3nnc(C(F)(F)CCl)n3c2)cc1 [BHN-160, 3-(2-chloro-1,1-difluoroethyl)-6-[4-(trifluoromethoxy)phenyl][1,2,4]triazolo[4,3-a]pyridine] | 62%
FC(F)(F)Oc1ccc(-c2ccc3nnc(C(F)(F)OCc4ccccc4-n4cccn4)n3c2)cc1 [BHN-328, 3-(difluoro{[2-(1H-pyrazol-1-yl)benzyl]oxy}methyl)-6-[4-(trifluoromethoxy)phenyl][1,2,4]triazolo[4,3-a]pyridine] | 70.9%
FC(F)(F)c1nnc2ccc(-c3ccc4ccccc4c3)cn12 [BHN-106, 6-(naphthalen-2-yl)-3-(trifluoromethyl)[1,2,4]triazolo[4,3-a]pyridine] | 38.2%
FC(F)(F)Oc1ccc(-c2ccc3nnc(COCc4ccc(Cl)cc4)n3c2)cc1 [BHN-241, 3-{[(4-chlorobenzyl)oxy]methyl}-6-[4-(trifluoromethoxy)phenyl][1,2,4]triazolo[4,3-a]pyridine] | 82.2%
COc1nnc2ccc(-c3ccc(OC(F)(F)F)cc3)cn12 [BHN-185, 3-methoxy-6-[4-(trifluoromethoxy)phenyl][1,2,4]triazolo[4,3-a]pyridine] | 29.1%
COC(F)(F)c1nnc2ccc(-c3ccc(OC(F)(F)F)cc3)cn12 [BHN-140, 3-[difluoro(methoxy)methyl]-6-[4-(trifluoromethoxy)phenyl][1,2,4]triazolo[4,3-a]pyridine] | 53.2%

Same assay, conditions: compound at 10 μM; HEK293 cells expressing hNav1.5; late INa generated with 10 μM Tefluthrin (or 50 nM ATX II); read-out: LateINa_10 uM (percent block of late INa)

Compound | inhibition at 10 µM
FC(F)(F)Cc1nnc2ccc(-c3ccc(Oc4ccccc4)cc3)nn12 [BHN-31, 6-(4-phenoxyphenyl)-3-(2,2,2-trifluoroethyl)[1,2,4]triazolo[4,3-b]pyridazine] | 82.6%
FC(F)(F)Oc1ccc(-c2ccc3nnc(-c4ccc(OC(F)(F)F)cc4)n3c2)cc1 [BHN-55, 3,6-bis[4-(trifluoromethoxy)phenyl][1,2,4]triazolo[4,3-a]pyridine] | 90.7%
FC(F)(F)c1nnc2ccc(-c3ccc(-c4ccccc4)cc3)cn12 [BHN-57, 6-(biphenyl-4-yl)-3-(trifluoromethyl)[1,2,4]triazolo[4,3-a]pyridine] | 39.5%
NS(=O)(=O)c1ccc(-c2nnc3ccc(-c4ccc(OC(F)(F)F)cc4)cn23)cc1 [BHN-73, 4-{6-[4-(trifluoromethoxy)phenyl][1,2,4]triazolo[4,3-a]pyridin-3-yl}benzenesulfonamide] | 17.5%
FC(F)(F)Oc1ccc(-c2ccc3nnc(C(F)(F)F)n3c2)cc1CN1CCOCC1 [BHN-72, 6-[3-(morpholin-4-ylmethyl)-4-(trifluoromethoxy)phenyl]-3-(trifluoromethyl)[1,2,4]triazolo[4,3-a]pyridine] | 26.7%
CC(C)S(=O)(=O)c1ccc(-c2ccc3nnc(C(F)(F)F)n3c2)cc1 [BHN-68, 6-[4-(propan-2-ylsulfonyl)phenyl]-3-(trifluoromethyl)[1,2,4]triazolo[4,3-a]pyridine] | 22%
CCOC(=O)c1cccc(-c2ccc3nnc(-c4cccc(C(=O)OCC)c4)n3c2)c1 [BHN-80, diethyl 3,3′-[1,2,4]triazolo[4,3-a]pyridine-3,6-diyldibenzoate] | 59%
FC(F)(F)c1cc(-c2ccc3nnc(C(F)(F)F)n3c2)ccc1Cl [BHN-10, 6-[4-chloro-3-(trifluoromethyl)phenyl]-3-(trifluoromethyl)[1,2,4]triazolo[4,3-a]pyridine] | 51.2%
N#Cc1cccc(-c2nnc3ccc(-c4ccc(F)cc4)nn23)c1 [BHN-51, 3-[6-(4-fluorophenyl)[1,2,4]triazolo[4,3-b]pyridazin-3-yl]benzonitrile] | 40.5%
COC(=O)c1ccc(-c2ccc3nnc(C(F)(F)F)n3c2)cc1 [BHN-46, methyl 4-[3-(trifluoromethyl)[1,2,4]triazolo[4,3-a]pyridin-6-yl]benzoate] | 53.9%
CCNc1nnc2ccc(-c3ccc(OC(F)(F)F)cc3)cn12 [BHN-331, N-ethyl-6-[4-(trifluoromethoxy)phenyl][1,2,4]triazolo[4,3-a]pyridin-3-amine] | 38.2%
